Measured values reported in article PMC4666608, “Metabolic Profiling of Chicken Embryos Exposed to Perfluorooctanoic Acid (PFOA) and Agonists to Peroxisome Proliferator-Activated Receptors” (PLoS ONE, 2015).
Marks after values point to notes of the source that are not given here.

Test system: chicken embryos
Experiment: Metabolic profiling of blood plasma (GC-MS, LC-MS, OPLS-DA)
Type: in vivo, Gallus gallus domesticus
Procedure: Controls were injected with 20 μL vehicle only (DMSO).
Plasma was collected and stored at -70°C.
Metabolites in allantoic fluid and blood plasma were analyzed using gas chromatography-mass spectrometry (GC-MS) and liquid chromatography-mass spectrometry (LC-MS) as described in S1 Methods. Prior to GC-MS and LC-MS analysis, allantoic fluid (100 μL) and blood plasma (50 μL) were extracted. To each sample, 900 μL (allantoic fluid) or 450 μL (blood plasma) of extraction buffer (90/10 v/v methanol:water) including all internal standards were added. Standards for GC-MS were proline, succinic acid, glutamic acid, salicylic acid, alpha-ketoglutarate, putrescine, myristic acid, hexadecanoic acid, cholesterol, and sucrose. Standards for LC-MS were Val-Tyr-Val, Leu-enkephalin, sulfadimethoxine and reserpine. Samples were homogenized by shaking in a bead mill at a frequency of 30 Hz for 3 minutes and proteins were precipitated at +4°C on ice. The samples were centrifuged at +4°C, 14000 rpm, for 10 min. Then, 200 μL supernatant was transferred to a GC microvial and 200 μL was transferred to an LC microvial, and solvents were evaporated. Samples from the four replicate experiments were analyzed using in chronological order and within each replicate experiment the run order of the individual samples was randomized.
Multivariate statistical analyses of metabolite profiles were performed using the software package SIMCA-P version 13.0 (Umetrics, Umeå, Sweden). Data was centered and scaled to variance 1 (UV scaling) prior to modelling. To reduce unintended systematic variation caused by sample processing and instrument drift, GC-MS and LC-MS metabolite amounts (expressed as the area under the chromatographic peak) were normalized by Orthogonal Partial Least Squares analysis (O2PLS) prior to multivariate data analysis. O2PLS finds common (predictive) and unique (orthogonal) variation in two data matrices. If applied to find the common variation between the data matrix containing the measured metabolite concentrations and a matrix containing only the internal standards, the only common (predictive) variation expected is due to the unintended systematic variation. By deleting the contribution of the predictive latent variables, that variation can be removed from the data. Models obtained after this normalization contain in general less latent variables, and this simplification helps when deciding on the number of latent variables to be used. Following normalization, GC-MS and LC-MS data were analyzed together. Initially, a global Principal Component Analysis (PCA) was performed to get an overview of groups and trends and to identify outliers. Projections to latent structures by means of Orthogonal Partial Least Squares Discriminant Analysis (OPLS-DA) was used to model the relationship between the X-matrix (metabolite concentrations) and the Y matrix (class, i.e. exposure group or sex), and to find x-variables that were related to class belonging. OPLS-DA is a supervised prediction and regression method that rotates the projection plane to find the maximum covariance between the data and the class assignment. All groups were first analyzed together in a 5-class OPLS-DA and then each exposure group was analyzed against the control group in a 2-class OPLS-DA. Sex differences were analyzed both using the whole data set and in each group separately using 2-class OPLS-DA, with females and males as the two classes. Only variables with 80% or more nonzero values were included in the statistical models. […] The validity of each model was also checked using CV-ANOVA (ANOVA of the cross-validated residuals). A significance level of p < 0.05 was used. For each model, R ^2 X, R ^2 Y and Q ^2 values were calculated, where R ^2 X is a measure of the fraction of x variation modeled in the extracted latent variables, R ^2 Y is a measure of the fraction of y variation modeled and Q ^2 is an estimate of the predictive ability of the model and is calculated by cross-validation. […]

CN(CCOc1ccc(CC2SC(=O)NC2=O)cc1)c1ccccn1 (centres unmarked) [Rosiglitazone, rosiglitazone, reference compound]
0.8*: Mean concentration relative to control, feature 231.0174@1.6241412 (LC) | Mean concentration relative to control, feature 260.0508@0.69984084 (LC)
0.8**: Mean concentration relative to control, feature 118.0284@2.480333 (C4H6O4) (LC) | Mean concentration relative to control, feature 412.135@2.4779084 (C17H24N4O6S) (LC) | Mean concentration relative to control, feature 509.1184@2.4798179 (LC) | Mean concentration relative to control, feature 1591.051@5.0189176 (LC)
1.2: Mean concentration relative to control, feature Win039_C07 (GC) | Mean concentration relative to control, feature 250.1317@2.1334834 (LC) | Mean concentration relative to control, feature 339.3861@9.528681 (LC)
1.2*: Mean concentration relative to control, feature Win006_C03 (GC) | Mean concentration relative to control, feature 558.4095@9.459733 (LC) | Mean concentration relative to control, feature 698.2598@1.3599721 (LC)
0.9*: Mean concentration relative to control, feature 215.047@1.6260729 (C5H14NO6P) (LC) | Mean concentration relative to control, feature 366.1431@1.4228548 (LC) | Mean concentration relative to control, feature 407.0999@1.585909 (LC) | Mean concentration relative to control, feature 1591.388@5.0202384 (LC) | Mean concentration relative to control, feature 1591.7203@5.018071 (LC)
1.0: Mean concentration relative to control, feature 126.0428@1.2278157 (Thymine) (LC) | Mean concentration relative to control, feature 659.5483@11.4915495 (LC) | Mean concentration relative to control, feature 875.4661@10.5661745 (LC)
1.4*: Mean concentration relative to control, feature 755.5465@10.73882 (LC)
0.7*: Mean concentration relative to control, feature 489.1508@8.562614 (LC)
1.1*: Mean concentration relative to control, feature 1316.4163@1.9465046 (LC)
1.1: Mean concentration relative to control, feature Win011_C02 (Isoleucine) (GC) | Mean concentration relative to control, feature Win034_C09 (Tyrosine) (GC) | Mean concentration relative to control, feature 146.0362@0.7772238 (LC) | Mean concentration relative to control, feature 159.0686@1.1608156 (LC) | Mean concentration relative to control, feature 164.0449@0.7694838 (LC) | Mean concentration relative to control, feature 202.1024@5.0303197 (C8H14N2O4) (LC) | Mean concentration relative to control, feature 362.1467@0.8461036 (LC) | Mean concentration relative to control, feature 565.1902@0.7699907 (LC) | Mean concentration relative to control, feature 577.2747@9.25652 (LC) | Mean concentration relative to control, feature 581.1643@0.77029324 (LC) | Mean concentration relative to control, feature 644.1614@0.7647065 (LC) | Mean concentration relative to control, feature 700.5514@10.765638 (LC)
1: Mean concentration relative to control, feature Win031_C03 (Citric acid) (GC) | Mean concentration relative to control, feature Win034_C08 (Tyrosine) (GC) | Mean concentration relative to control, feature Win043_C02 (Cystathionine) (GC) | Mean concentration relative to control, feature Win066_C03 (GC) | Mean concentration relative to control, feature Win088_C02 (GC) | Mean concentration relative to control, feature 122.0486@0.675613 (LC) | Mean concentration relative to control, feature 203.1162@0.5130696 (LC) | Mean concentration relative to control, feature 213.2458@7.4887733 (LC) | Mean concentration relative to control, feature 226.0721@1.9460537 (LC) | Mean concentration relative to control, feature 233.1265@2.535991 (LC) | Mean concentration relative to control, feature 293.0903@1.5739433 (LC) | Mean concentration relative to control, feature 310.178@7.5343466 (LC) | Mean concentration relative to control, feature 342.2883@7.526812 (LC) | Mean concentration relative to control, feature 348.0675@1.5761927 (LC) | Mean concentration relative to control, feature 355.9454@0.68034226 (LC) | Mean concentration relative to control, feature 373.296@9.044806 (LC) | Mean concentration relative to control, feature 375.3108@8.995564 (LC) | Mean concentration relative to control, feature 389.2686@9.046645 (LC) | Mean concentration relative to control, feature 471.9819@0.685074 (LC) | Mean concentration relative to control, feature 634.2403@1.9467853 (LC) | Mean concentration relative to control, feature 827.5078@8.831237 (LC) | Mean concentration relative to control, feature 1262.4865@1.947075 (LC)
0.9: Mean concentration relative to control, feature Win027_C13 (GC) | Mean concentration relative to control, feature Win061_C01 (GC) | Mean concentration relative to control, feature 276.0173@1.6283482 (LC) | Mean concentration relative to control, feature 278.0939@1.3354088 (LC) | Mean concentration relative to control, feature 307.2147@7.5065937 (C18H29NO3) (LC) | Mean concentration relative to control, feature 444.3607@10.33052 (LC) | Mean concentration relative to control, feature 525.2855@8.361063 (LC) | Mean concentration relative to control, feature 545.2492@8.463657 (LC)
